Source: patent US20230265151A1, “GIP/GLP1 CO-AGONIST COMPOUNDS” (priority 2020, published 2023)
Like-named read-outs stand apart in the source and are kept apart here. *1 amine or outer side, *2 acyl side, *3 side chain or, on linkers, in order; H or OH if unused. Where a SMILES comes first, the peptide text is derived from it. Side-chain parts run from the residue outwards. [ ]: non-standard residue; d: D form. The star is where a group is joined. Decanoyl(10-(4-HOOC-PhO)) = O=C(O)c1ccc(OCCCCCCCCCC(=O)*)cc1; αMePhe(2-F) = C[C@](N)(Cc1ccccc1F)C(=O)O; γGlu = O=C(O)[C@H](CCC(=O)[*:2])N[*:1]; αMeY = C[C@](N)(Cc1ccc(O)cc1)C(=O)O; αMeL = CC(C)C[C@](C)(N)C(=O)O; Orn = NCCC[C@H](N)C(=O)O; AEEA = NCCOCCOCC(=O)O; Aib = CC(C)(N)C(=O)O

Experiments:
Format in all cases: cell-based
hGLP-1R = hGLP-1R (Homo sapiens, UniProt P43220); experiment: Functional cAMP formation (HTRF) in HEK-293 clonal cells expressing hGLP-1R, 0.1% bovine casein, without or with 1.0% human serum albumin; design: expressed in transfected cells; details: for Emax: percent of maximal response to GLP-1(7-36)NH2; for EC50: cAMP
Procedure, shortened: (§1)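 Cells were stimulated with peptide for 30 min at 37° C, then intracellular cAMP was measured by competitive HTRF (665/620 nm ratio) and converted to nM using a cAMP standard curve. Relative EC50 and Emax came from four-parameter logistic fits of percent maximal response against peptide concentration.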

hGCGR = target: T1, hGCGR (Homo sapiens, UniProt P47871); experiment: Functional cAMP formation (HTRF) in HEK-293 clonal cells expressing hGCGR, 0.1% bovine casein, without or with 1.0% human serum albumin; details: 37° C.
T1 construct: expressed in transfected cells
Procedure, shortened: as §1

hGIPR = target: T2, hGIPR (Homo sapiens, UniProt P48546); experiment: Functional cAMP formation (HTRF) in HEK-293 clonal cells expressing hGIPR, 0.1% bovine casein, without or with 1.0% human serum albumin; details: for EC50: geometric mean; for Emax: percent of maximal response to GIP(1-42)NH2
T2 construct: expressed in transfected cells
T2 sequence (P48546 22-466): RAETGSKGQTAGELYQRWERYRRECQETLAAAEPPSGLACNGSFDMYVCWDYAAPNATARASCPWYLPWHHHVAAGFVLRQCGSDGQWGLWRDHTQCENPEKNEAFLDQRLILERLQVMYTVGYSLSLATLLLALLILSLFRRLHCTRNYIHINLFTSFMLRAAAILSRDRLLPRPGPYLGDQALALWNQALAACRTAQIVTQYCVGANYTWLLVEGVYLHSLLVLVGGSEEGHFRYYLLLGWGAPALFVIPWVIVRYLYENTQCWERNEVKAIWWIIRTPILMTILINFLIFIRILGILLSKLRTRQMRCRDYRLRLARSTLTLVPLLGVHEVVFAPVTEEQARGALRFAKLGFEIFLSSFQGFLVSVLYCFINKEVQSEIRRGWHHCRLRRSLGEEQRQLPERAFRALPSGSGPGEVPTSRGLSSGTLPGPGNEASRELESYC
Procedure, shortened: as §1

[1] = HEK293, cAMP, 37° C., 0.1% bovine casein, arithmetic mean, read-out: hGLP-1R Emax, % ± SEM
[2] = 37° C., 0.1% bovine casein (no human serum albumin), geometric mean, read-out: hGLP-1R EC50, nM (SEM, n)
[3] = cAMP, 0.1% bovine casein (no human serum albumin), geometric mean, read-out: hGCGR EC50, nM (SEM, n)
[4] = cAMP, 37° C., 0.1% bovine casein (no human serum albumin), read-out: hGIPR EC50, nM (SEM, n)
[5] = 37° C., 0.1% bovine casein and 1.0% human serum albumin, geometric mean (SEM, n), read-out: hGLP-1R EC50, nM (SEM, n)
[6] = cAMP, 0.1% bovine casein and 1.0% human serum albumin, geometric mean (SEM, n), read-out: hGCGR EC50, nM (SEM, n)
[7] = HEK293, cAMP, 37° C., 0.1% bovine casein and 1.0% human serum albumin, read-out: hGIPR Emax, % ± SEM

T1 sequence (P47871 26-477): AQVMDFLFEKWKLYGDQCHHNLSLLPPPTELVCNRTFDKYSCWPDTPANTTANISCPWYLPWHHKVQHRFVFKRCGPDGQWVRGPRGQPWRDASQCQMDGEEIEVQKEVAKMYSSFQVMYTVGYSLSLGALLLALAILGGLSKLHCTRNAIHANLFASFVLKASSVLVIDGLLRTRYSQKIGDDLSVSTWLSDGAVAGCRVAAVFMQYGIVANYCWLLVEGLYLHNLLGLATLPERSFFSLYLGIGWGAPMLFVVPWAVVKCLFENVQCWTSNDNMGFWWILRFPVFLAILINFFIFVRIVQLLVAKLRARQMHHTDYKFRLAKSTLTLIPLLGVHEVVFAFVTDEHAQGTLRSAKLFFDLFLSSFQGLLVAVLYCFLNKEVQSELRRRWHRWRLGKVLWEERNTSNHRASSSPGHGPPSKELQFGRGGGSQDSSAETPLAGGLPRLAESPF
hGLP-1R, sequence (P43220 24-463): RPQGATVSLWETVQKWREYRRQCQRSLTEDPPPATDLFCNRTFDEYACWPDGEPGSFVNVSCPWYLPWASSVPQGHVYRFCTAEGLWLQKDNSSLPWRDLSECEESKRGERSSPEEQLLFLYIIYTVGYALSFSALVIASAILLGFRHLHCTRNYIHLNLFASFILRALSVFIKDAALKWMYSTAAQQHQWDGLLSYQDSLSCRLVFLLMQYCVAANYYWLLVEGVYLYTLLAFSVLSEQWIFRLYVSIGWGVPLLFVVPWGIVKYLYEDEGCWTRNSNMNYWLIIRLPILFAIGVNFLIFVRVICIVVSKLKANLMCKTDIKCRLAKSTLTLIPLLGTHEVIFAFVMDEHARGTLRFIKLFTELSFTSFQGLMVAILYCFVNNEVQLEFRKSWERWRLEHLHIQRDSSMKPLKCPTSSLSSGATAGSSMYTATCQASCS

Row | Structure (SMILES) | Emax (hGLP-1R; HEK293, 0.1% bovine casein and 1.0% human serum albumin, 37° C., read-out: hGLP-1R Emax, % ± SEM) | Emax (hGLP-1R; [1]) | EC50 (hGLP-1R; [2]) | EC50 (hGCGR; 0.1% bovine casein and 1.0% human serum albumin, geometric mean, read-out: hGCGR EC50, nM (SEM, n)) | EC50 (hGCGR; [3]) | EC50 (hGIPR; 0.1% bovine casein and 1.0% human serum albumin, 37° C., read-out: hGIPR EC50, nM (SEM, n)) | EC50 (hGIPR; [4]) | Emax (hGLP-1R; HEK293, read-out: hGLP-1R Emax, % ± SEM, cAMP, 37° C., 0.1% bovine casein and 1.0% human serum albumin) | EC50 (hGLP-1R; hGLP-1R EC50, nM (SEM, n), 37° C., 0.1% bovine casein (no human serum albumin), geometric mean) | EC50 (hGCGR; hGCGR EC50, nM (SEM, n), cAMP, 0.1% bovine casein (no human serum albumin), geometric mean) | EC50 (hGCGR; hGCGR EC50, nM (SEM, n), cAMP, 0.1% bovine casein and 1.0% human serum albumin, geometric mean (SEM, n)) | Emax (hGIPR; HEK293, read-out: hGIPR Emax, % ± SEM, cAMP, 37° C., 0.1% bovine casein and 1.0% human serum albumin) | EC50 (hGIPR; hGIPR EC50, nM (SEM, n), cAMP, 37° C., 0.1% bovine casein (no human serum albumin)) | EC50 (hGLP-1R; [5]) | EC50 (hGCGR; [6]) | Emax (hGIPR; [7]) | Emax (hGIPR; HEK293, cAMP, 37° C., 0.1% bovine casein, arithmetic mean, read-out: hGIPR Emax, % ± SEM)
1 | CC[C@H](C)[C@H](NC(=O)[C@H](CCCN)NC(=O)[C@H](CC(=O)O)NC(=O)[C@H](CC(C)C)NC(=O)[C@](C)(CC(C)C)NC(=O)[C@@H](NC(=O)C(C)(C)NC(=O)[C@H](Cc1ccc(O)cc1)NC(=O)[C@H](CC(=O)O)NC(=O)[C@H](CO)NC(=O)[C@@H](NC(=O)[C@](C)(Cc1ccccc1F)NC(=O)[C@@H](NC(=O)CNC(=O)[C@H](CCC(=O)O)NC(=O)C(C)(C)NC(=O)[C@@H](N)Cc1ccc(O)cc1)[C@@H](C)O)[C@@H](C)O)[C@@H](C)CC)C(=O)N[C@@H](C)C(=O)N[C@@H](CCC(N)=O)C(=O)NC(C)(C)C(=O)N[C@@H](CCCN)C(=O)N[C@@H](Cc1ccccc1)C(=O)N[C@H](C(=O)N[C@@H](CCCCNC(=O)COCCOCCNC(=O)COCCOCCNC(=O)CC[C@H](NC(=O)CCCCCCCCCCCCC(=O)O)C(=O)O)C(=O)N[C@@](C)(Cc1ccc(O)cc1)C(=O)N[C@@H](CC(C)C)C(=O)N[C@H](C(=O)N[C@@H](CCCCNC(=O)COCCOCCNC(=O)COCCOCCNC(=O)CC[C@H](NC(=O)CCCCCCCCCCCCC(=O)O)C(=O)O)C(=O)NCC(=O)NCC(=O)N1CCC[C@H]1C(=O)N[C@@H](CO)C(=O)N[C@@H](CO)C(=O)NCC(=O)N[C@@H](C)C(=O)N1CCC[C@H]1C(=O)N1CCC[C@H]1C(=O)N1CCC[C@H]1C(=O)N[C@@H](CO)C(N)=O)[C@@H](C)CC)[C@@H](C)CC [Example 316] | 113% | 109% | 0.571 nM | > 9950 nM | > 9950 nM | 1.11 nM | 0.0316 nM | – | – | – | – | – | – | – | – | – | –
2 | CC[C@H](C)[C@H](NC(=O)[C@H](CCCN)NC(=O)[C@H](CC(=O)O)NC(=O)[C@H](CC(C)C)NC(=O)[C@](C)(CC(C)C)NC(=O)[C@@H](NC(=O)C(C)(C)NC(=O)[C@H](Cc1ccc(O)cc1)NC(=O)[C@H](CC(=O)O)NC(=O)[C@H](CO)NC(=O)[C@@H](NC(=O)[C@](C)(Cc1ccccc1F)NC(=O)[C@@H](NC(=O)CNC(=O)[C@H](CCC(=O)O)NC(=O)C(C)(C)NC(=O)[C@@H](N)Cc1ccc(O)cc1)[C@@H](C)O)[C@@H](C)O)[C@@H](C)CC)C(=O)N[C@@H](C)C(=O)N[C@@H](CCC(N)=O)C(=O)NC(C)(C)C(=O)N[C@@H](CCCCNC(=O)COCCOCCNC(=O)CC[C@H](NC(=O)CCCCCCCCCOc1ccc(C(=O)O)cc1)C(=O)O)C(=O)N[C@@H](Cc1ccccc1)C(=O)N[C@H](C(=O)N[C@H](CCC(=O)O)C(=O)N[C@@](C)(Cc1ccc(O)cc1)C(=O)N[C@@H](CC(C)C)C(=O)N[C@H](C(=O)N[C@@H](CCCCNC(=O)COCCOCCNC(=O)CC[C@H](NC(=O)CCCCCCCCCOc1ccc(C(=O)O)cc1)C(=O)O)C(=O)NCC(=O)NCC(=O)N1CCC[C@H]1C(=O)N[C@@H](CO)C(=O)N[C@@H](CO)C(=O)NCC(=O)N[C@@H](C)C(=O)N1CCC[C@H]1C(=O)N1CCC[C@H]1C(=O)N1CCC[C@H]1C(=O)N[C@@H](CO)C(N)=O)[C@@H](C)CC)[C@@H](C)CC [Example 376] (H-Y[Aib]EGT[αMePhe(2-F)]TSDY[Aib]I[αMeL]LD[Orn]IAQ[Aib]K([AEEA-γGlu-Decanoyl(10-(4-HOOC-PhO))])FI[dE][αMeY]LIK([AEEA-γGlu-Decanoyl(10-(4-HOOC-PhO))])GGPSSGAPPPS-NH2) | – | – | – | – | – | – | – | 121% | 0.539 nM | > 9950 nM | > 9950 nM | 88.3% | 0.0281 nM | – | – | – | –
3 | CCCCCCCCCCCC(=O)N[C@@H](CCC(=O)NCCOCCOCC(=O)NCCCC[C@H](NC(=O)[C@H](CCCN)NC(=O)[C@H](CC(=O)O)NC(=O)[C@H](CC(C)C)NC(=O)[C@](C)(CC(C)C)NC(=O)[C@@H](NC(=O)C(C)(C)NC(=O)[C@H](Cc1ccncc1)NC(=O)[C@H](CC(=O)O)NC(=O)[C@H](CO)NC(=O)[C@@H](NC(=O)[C@](C)(Cc1ccccc1F)NC(=O)[C@@H](NC(=O)CNC(=O)[C@H](CCC(=O)O)NC(=O)C(C)(C)NC(=O)[C@@H](N)Cc1ccc(O)cc1)[C@@H](C)O)[C@@H](C)O)[C@@H](C)CC)C(=O)N[C@@H](C)C(=O)N[C@@H](CCC(N)=O)C(=O)NC(C)(C)C(=O)N[C@@H](CCCCNC(=O)COCCOCCNC(=O)CC[C@H](NC(=O)CCCCCCCCCCC)C(=O)O)C(=O)N[C@@H](Cc1ccccc1)C(=O)N[C@H](C(=O)N[C@H](CCC(=O)O)C(=O)N[C@@](C)(Cc1ccc(O)cc1)C(=O)N[C@@H](CC(C)C)C(=O)N[C@H](C(=O)N[C@@H](CCC(=O)O)C(=O)NCC(=O)NCC(=O)N1CCC[C@H]1C(=O)N[C@@H](CO)C(=O)N[C@@H](CO)C(=O)NCC(=O)N[C@@H](C)C(=O)N1CCC[C@H]1C(=O)N1CCC[C@H]1C(=O)N1CCC[C@H]1C(=O)N[C@@H](CO)C(N)=O)[C@@H](C)CC)[C@@H](C)CC)C(=O)O [Example 426] | – | 97.2% | 0.206 nM | – | > 9950 nM | – | 0.0191 nM | – | – | – | – | – | – | 29.7 nM | > 9950 nM | 91.2% | 93.3%
4 | CC[C@H](C)[C@H](NC(=O)[C@H](CCCN)NC(=O)[C@H](CC(=O)O)NC(=O)[C@H](CC(C)C)NC(=O)[C@](C)(CC(C)C)NC(=O)[C@@H](NC(=O)C(C)(C)NC(=O)[C@H](Cc1ccc(O)cc1)NC(=O)[C@H](CC(=O)O)NC(=O)[C@H](CO)NC(=O)[C@@H](NC(=O)[C@](C)(Cc1ccccc1F)NC(=O)[C@@H](NC(=O)CNC(=O)[C@H](CCC(=O)O)NC(=O)C(C)(C)NC(=O)[C@@H](N)Cc1ccc(O)cc1)[C@@H](C)O)[C@@H](C)O)[C@@H](C)CC)C(=O)N[C@@H](C)C(=O)N[C@@H](CCC(N)=O)C(=O)NC(C)(C)C(=O)N[C@@H](CCC(=O)O)C(=O)N[C@@H](Cc1ccccc1)C(=O)N[C@H](C(=O)N[C@@H](CCCCNC(=O)COCCOCCNC(=O)CC[C@H](NC(=O)COCCOCCNC(=O)COCCOCCNC(=O)CCCCCCCCCCCCC(=O)O)C(=O)O)C(=O)N[C@@](C)(Cc1ccc(O)cc1)C(=O)N[C@@H](CC(C)C)C(=O)N[C@H](C(=O)N[C@@H](CCCCNC(=O)COCCOCCNC(=O)CC[C@H](NC(=O)COCCOCCNC(=O)COCCOCCNC(=O)CCCCCCCCCCCCC(=O)O)C(=O)O)C(=O)NCC(=O)NCC(=O)N1CCC[C@H]1C(=O)N[C@@H](CO)C(=O)N[C@@H](CO)C(=O)NCC(=O)N[C@@H](C)C(=O)N1CCC[C@H]1C(=O)N1CCC[C@H]1C(=O)N1CCC[C@H]1C(=O)N[C@@H](CO)C(N)=O)[C@@H](C)CC)[C@@H](C)CC [Example 364] | – | – | 0.347 nM | – | > 9950 nM | – | 0.0111 nM | – | – | – | – | – | – | 13 nM | > 9950 nM | 89.1% | –
